Assay [1] concerns HF, PPC-1, and CaKi-1 cells. Nature of the assay: MTT cell viability screen at 100 μM (cell line not given). The class given is cell-based, human. As to conditions: 72 h, cell line not stated. As for the experimental part:
The effect of synthesized compounds on cell viability was studied using 3-(4,5-dimethylthiazol-2-yl)-2,5-diphenyltetrazolium bromide (MTT; Sigma-Aldrich Co., St Louis, MO, USA) assay, as described elsewhere. Briefly, HF, PPC-1, and CaKi-1 cells were seeded in 96-well plates (Corning) in triplicates at a volume of 100 μL at a concentration of 4 × 10^3 cells/well. After 24 h of incubation, the cells were treated with 100 μM of tested compounds. After 72 h, the MTT reagent (at 0.5 mg/mL concentration) has been added to the wells, and cells were incubated for 4 h. Then the medium was aspirated, and the formed purple crystals were dissolved in 100 μL DMSO (Sigma-Aldrich Co.). The absorbance was measured at 570 and 630 nm using a multi-detection microplate reader. The compound effect on cell viability was calculated using a formula (1): Relativecellviability%=A−A0/ANC−A0 (1) Where: […]

Assay [2] deals with Klebsiella pneumoniae ATCC 33499. Nature of the assay: Serial dilution on solid agar, K. pneumoniae. Format: cell-based. As to conditions: ATCC33499, solid Mueller-Hinton agar, 24 hours. As for the experimental part: (§1) Antimicrobial activity of compound 16b on solid agar was tested using the same microbial cultures, and the same suspension preparation procedure, as described in above section. All procedures were done in aseptic conditions.
(§2) Mueller-Hinton agar was boiled and kept at to 37 °C during the whole procedure. Compound 16b solution was prepared in DMSO right before experiment. The Agar was mixed with compound solution at different ratios to make the final compound concentrations of 1 mM, 400 μM, 200 μM and 100 μM. Then 10 ml of prepared solution was poured into sterile Petri dishes (85 mm in diameter) and kept in aseptic conditions while the agar solidified. The agar with 0.5% of DMSO served as a negative control. With the help of loop standard microbial cultures by 0.1 ml were poured on the surface of prepared agar with investigative compound. Then Petri dishes were kept for 24 hours in thermostatic conditions.
(§3) The minimal dilution, i.e. the lowest concentration in μg/mL of the investigative and comparison compounds that inhibited visible growth of microorganisms was the minimal inhibitory concentration (MIC).

In assay [3] the test system is Pseudomonas aeruginosa ATCC 27853. Description: Serial broth dilution in liquid medium, P. aeruginosa. The settings on record: ATCC27853, Mueller-Hinton broth, 24 hours, n = 3. The class given is cell-based. As for the experimental part:
Antibacterial and antifungal susceptibility to the compound 16b was tested using a serial broth dilution technique in Mueller-Hinton broth II (BBL, Cockeysville, USA), as described elsewhere. All procedures were done in aseptic conditions. Standard bacterial and fungal cultures were used: Staphylococcus aureus ATCC 25923, Staphylococcus epidermidis ATCC 12228, Escherichia coli ATCC 25922, Enterococcus faecalis ATCC 29212, Klebsiella pneumoniae ATCC 33499, Pseudomonas aeruginosa ATCC 27853, Proteus mirabilis ATCC 12459, Bacillus cereus ATCC 8035, and Candida albicans ATCC 60193. Standard cultures of nonsporic bacteria S. aureus, S. epidermidis, E. coli, E. faecalis, K. pneumoniae, P. aeruginosa and P. mirabilis were cultivated for 20–24 hours at 37°C in Mueller-Hinton Agar (BBL, Cockeysville, USA). A bacterial suspension was prepared from cultivated bacterial cultures in physiological solution according to turbidity standard 0.5 McFarland. Standard culture of sporic bacteria B. cereus was cultivated for 7 days at 37°C in Mueller-Hinton II Agar. […] Then the absorbance was measured at 600 nm using a multi-detection microplate reader. […]
On the technique in general: Broth dilution looks for growth in wells or tubes with falling amounts of substance.

Assay [4] concerns Candida albicans ATCC 60193. Nature of the assay: Serial dilution on solid agar, C. albicans. The settings on record: ATCC60193, solid Mueller-Hinton agar, 24 hours. The class given is cell-based. The protocol:
as §1, §2, §3

Each structure is given as a SMILES string. In brackets after ≈: the same amount, converted by molar mass. Bounds are passed on as bounds.

One may read the MIC as the lowest concentration found to suppress growth. What is called EC50 is the concentration giving half of the maximal effect. Regarding `Cc1cc(NS(=O)(=O)c2ccc(NCCC(=O)NN=Cc3ccc([N+](=O)[O-])o3)cc2)no1` [Compound 16b, N-(5-methylisoxazol-3-yl)-4-((3-(2-((5-nitrofuran-2-yl)methylene)hydrazineyl)-3-oxopropyl)amino)-benzenesulfonamide], the “reduced cell viability up to about” value in assay [1] was “about 40%”. Also, the results for the MIC in assay [2] and in assay [4] were 1000 µM (≈ 462 µg/mL) and 400 µM (≈ 185 µg/mL), respectively. The EC50 in assay [3] is over 100 µM.
